Results: US8835476B2, “Synthesis of novel antimicrobials” (priority 2005, dated 2014)
≈ marks a conversion by molar mass, not a printed value.

Key:
Format in all cases: cell-based
[1] = test system: A. anitratus ATCC 19606; test: Broth microdilution MIC, ATCC strains; conditions: Acinetobacter calcoaceticus, ATCC19606; A. anitratus ATCC 19606; read-out: MIC (growth inhibition, microdilution method)
Procedure, shortened: (§1)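 Tested per NCCLS M7-A6 broth microdilution with an inoculum of 5×10^5 CFU/ml and DMSO controls matching solvent levels. Panels were incubated 16 to 20 hours at 35° C. in ambient air, and the MIC was taken as the lowest concentration inhibiting visible growth.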

[2] = test system: B. cepacia ATCC 25416; test: Broth microdilution MIC, ATCC strains; conditions: Burkholderia cepacia, ATCC25416; B. cepacia ATCC 25416; read-out: MIC (growth inhibition, microdilution method)
Procedure, shortened: as §1

[3] = test system: E. coli ATCC 25922; test: Broth microdilution MIC, ATCC strains; conditions: Escherichia coli, ATCC25922, E. coli ATCC 25922; read-out: MIC (growth inhibition, microdilution method)
Procedure, shortened: as §1

[4] = test system: E. faecium ATCC 35667; test: Broth microdilution MIC, ATCC strains; conditions: Enterococcus faecium, ATCC35667, read-out: MIC (growth inhibition, microdilution method)
Procedure, shortened: as §1

[5] = test system: K. pneumoniae ATCC 13883; test: Broth microdilution MIC, ATCC strains; conditions: Klebsiella pneumoniae, ATCC13883; K. pneumoniae ATCC 13883; read-out: MIC (growth inhibition, microdilution method)
Procedure, shortened: as §1

[6] = test system: P. mirabilis ATCC 29245; test: Broth microdilution MIC, ATCC strains; conditions: Proteus mirabilis, ATCC29245; P. mirabilis ATCC 29245; read-out: MIC (growth inhibition, microdilution method)
Procedure, shortened: as §1

[7] = test system: P. vulgaris ATCC 49132; test: Broth microdilution MIC, ATCC strains; conditions: Proteus vulgaris, ATCC49132; P. vulgaris ATCC 49132; read-out: MIC (growth inhibition, microdilution method)
Procedure, shortened: as §1

[8] = test system: Pr. stuartii ATCC 33672; test: Broth microdilution MIC, ATCC strains; conditions: Providencia stuartii, ATCC33672; Pr. stuartii ATCC 33672; read-out: MIC (growth inhibition, microdilution method)
Procedure, shortened: as §1

[9] = test system: S. epidermidis ATCC 14990; test: Broth microdilution MIC, ATCC strains; conditions: Staphylococcus epidermidis, ATCC14990; S. epidermidis ATCC 14990; read-out: MIC (growth inhibition, microdilution method)
Procedure, shortened: as §1

[10] = test system: S. liquefaciens ATCC 27592; test: Broth microdilution MIC, ATCC strains; conditions: S. liquefaciens ATCC 27592; read-out: MIC (growth inhibition, microdilution method)
Procedure, shortened: as §1

[11] = test system: S. simulans ATCC 27848; test: Broth microdilution MIC, ATCC strains; conditions: Staphylococcus simulans, ATCC27848, read-out: MIC (growth inhibition, microdilution method)
Procedure, shortened: as §1

[12] = test system: S. warneri ATCC 27836; test: Broth microdilution MIC, ATCC strains; conditions: Staphylococcus warneri, ATCC27836; S. warneri ATCC 27836; read-out: MIC (growth inhibition, microdilution method)
Procedure, shortened: as §1

[13] = test system: P. rettgeri CAP; test: Broth microdilution MIC, reference strains; conditions: Providencia rettgeri; P. rettgeri (CAP in Table 1); read-out: MIC (growth inhibition, microdilution method)
Procedure, shortened: as §1

[14] = test system: A. baumanii clinical isolates; test: Broth microdilution MIC, clinical isolate strains (NAUTICA); conditions: unit assumed
Procedure, shortened: as §1

[15] = test system: B. cepacia clinical isolates; test: as above; conditions: unit assumed
Procedure, shortened: as §1

[16] = test system: C. amalonaticus clinical isolates; test: as above; conditions: unit assumed
Procedure, shortened: as §1

[17] = test system: C. freundii clinical isolates; test: as above; conditions: in µg/mL (unit assumed)
Procedure, shortened: as §1

[18] = test system: C. koseril clinical isolates; test: as above; conditions: unit assumed
Procedure, shortened: as §1

[19] = test system: E. aerogenes clinical isolates; test: as above; conditions: unit assumed
Procedure, shortened: as §1

[20] = test system: E. cloacae clinical isolates; test: as above; conditions: unit assumed
Procedure, shortened: as §1

[21] = test system: E. coli clinical isolates; test: as above; conditions: unit assumed
Procedure, shortened: as §1

[22] = test system: K. oxytoca clinical isolates; test: as above; conditions: unit assumed
Procedure, shortened: as §1

[23] = test system: K. pneumoniae clinical isolates; test: as above; conditions: unit assumed
Procedure, shortened: as §1

[24] = test system: M. morganii clinical isolates; test: as above; conditions: unit assumed
Procedure, shortened: as §1

[25] = test system: P. mirabilis clinical isolates; test: as above; conditions: unit assumed
Procedure, shortened: as §1

[26] = test system: P. retgerri clinical isolates; test: as above; conditions: unit assumed
Procedure, shortened: as §1

[27] = test system: P. stuartii clinical isolates; test: as above; conditions: unit assumed
Procedure, shortened: as §1

[28] = test system: P. vulgaris clinical isolates; test: as above; conditions: unit assumed
Procedure, shortened: as §1

[29] = test system: S. liquifaciens clinical isolates; test: as above; conditions: unit assumed
Procedure, shortened: as §1

[30] = test system: S. maltophilia clinical isolates; test: as above; conditions: unit assumed
Procedure, shortened: as §1

[31] = test system: S. marcescens clinical isolates; test: as above; conditions: unit assumed
Procedure, shortened: as §1

[32] = clinical isolates, one table line per isolate
[33] = Table 4B, each table row is one clinical isolate

Structure (SMILES)	MIC [1]	MIC [2]	MIC [3]	MIC [4]	MIC [5]	MIC [6]	MIC [7]	MIC [8]	MIC [9]	MIC [10]	MIC [11]	MIC [12]	MIC [13]	MIC, A. BAUMANII [14, 33]	MIC, B. CEPACIA [15, 33]	MIC, C. AMALONATICUS [16, 33]	MIC, C. FREUNDII [17, 33]	MIC, C. KOSERI [18, 33]	MIC, E. AEROGENES [19, 33]	MIC, E. CLOACAE [20, 33]	also measured
O=C(O)c1cc(-c2nnn[nH]2)c(-c2ccc(F)cc2)s1 [DNM-121, 5-(4-Fluoro-phenyl)-4-(1H-tetrazol-5-yl)-thiophene-2-carboxylic acid]	64 µg/mL (≈ 220 µM)	64 µg/mL (≈ 220 µM)	64 µg/mL (≈ 220 µM)	8 µg/mL (≈ 27.6 µM)	64 µg/mL (≈ 220 µM)	64 µg/mL (≈ 220 µM)	64 µg/mL (≈ 220 µM)	64 µg/mL (≈ 220 µM)	64 µg/mL (≈ 220 µM)	64 µg/mL (≈ 220 µM)	64 µg/mL (≈ 220 µM)	64 µg/mL (≈ 220 µM)	64 µg/mL (≈ 220 µM)	–	–	–	–	–	–	–	MIC, A. BAUMANII [14, 32]: 64 µg/mL (≈ 220 µM); MIC, B. CEPACIA [15, 32]: 64 µg/mL (≈ 220 µM); MIC, C. AMALONATICUS [16, 32]: 64 µg/mL (≈ 220 µM); MIC, C. FREUNDII [17, 32]: 64; MIC, C. KOSERI [18, 32]: 64 µg/mL (≈ 220 µM); MIC, E. AEROGENES [19, 32]: 64 µg/mL (≈ 220 µM); MIC, E. CLOACAE [20, 32]: 64 µg/mL (≈ 220 µM); MIC, E. COLI [21, 32]: 64 µg/mL (≈ 220 µM); MIC, K. OXYTOCA [22, 32]: 64 µg/mL (≈ 220 µM); MIC, K. PNEUMONIAE [23, 32]: 64 µg/mL (≈ 220 µM); MIC, M. MORGANII [24, 32]: 64 µg/mL (≈ 220 µM); MIC, P. MIRABILIS [25, 32]: 64 µg/mL (≈ 220 µM); MIC, P. RETTGERI [26, 32]: 64 µg/mL (≈ 220 µM); MIC, P. STUARTII [27, 32]: 64 µg/mL (≈ 220 µM); MIC, P. VULGARIS [28, 32]: 64 µg/mL (≈ 220 µM); MIC, S. LIQUEFACIENS [29, 32]: 64 µg/mL (≈ 220 µM); MIC, S. MALTOPHILIA [30, 32]: 64 µg/mL (≈ 220 µM); MIC, S. MARCESCENS [31, 32]: 64 µg/mL (≈ 220 µM)
CCOC(=O)c1cc(-c2nnn(C)n2)c(-c2ccc(F)cc2)s1 [DNM-125, ethyl 5-(4-fluorophenyl)-4-(2-methyl-2H-tetrazol-5-yl)thiophene-2-carboxylate]	> 16 µg/mL	> 16 µg/mL	> 16 µg/mL	> 16 µg/mL	> 16 µg/mL	> 16 µg/mL	> 16 µg/mL	> 16 µg/mL	> 16 µg/mL	> 16 µg/mL	> 16 µg/mL	> 16 µg/mL	> 16 µg/mL	> 16 µg/mL	> 16 µg/mL	> 16 µg/mL	>16	> 16 µg/mL	> 16 µg/mL	> 16 µg/mL	MIC, E. COLI [21, 33]: > 16 µg/mL; MIC, K. OXYTOCA [22, 33]: > 16 µg/mL; MIC, K. PNEUMONIAE [23, 33]: > 16 µg/mL; MIC, M. MORGANII [24, 33]: > 16 µg/mL; MIC, P. MIRABILIS [25, 33]: > 16 µg/mL; MIC, P. RETTGERI [26, 33]: > 16 µg/mL; MIC, P. STUARTII [27, 33]: > 16 µg/mL; MIC, P. VULGARIS [28, 33]: > 16 µg/mL; MIC, S. LIQUEFACIENS [29, 33]: > 16 µg/mL; MIC, S. MALTOPHILIA [30, 33]: > 16 µg/mL; MIC, S. MARCESCENS [31, 33]: > 16 µg/mL
Fc1ccc(-c2cc(-c3nnn[nH]3)c(-c3ccc(F)cc3)s2)cc1 [DNM-131, 5-(2,5-Bis(4-fluorophenyl)thiophen-3-yl)-1H-tetrazole]	> 32 µg/mL	> 32 µg/mL	> 32 µg/mL	> 32 µg/mL	> 32 µg/mL	> 32 µg/mL	> 32 µg/mL	> 32 µg/mL	> 32 µg/mL	> 32 µg/mL	> 32 µg/mL	> 32 µg/mL	> 32 µg/mL	> 32 µg/mL	> 32 µg/mL	> 32 µg/mL	>32	> 32 µg/mL	> 32 µg/mL	> 32 µg/mL	MIC, E. COLI [21, 33]: > 32 µg/mL; MIC, K. OXYTOCA [22, 33]: > 32 µg/mL; MIC, K. PNEUMONIAE [23, 33]: > 32 µg/mL; MIC, M. MORGANII [24, 33]: > 32 µg/mL; MIC, P. MIRABILIS [25, 33]: > 32 µg/mL; MIC, P. RETTGERI [26, 33]: > 32 µg/mL; MIC, P. STUARTII [27, 33]: > 32 µg/mL; MIC, P. VULGARIS [28, 33]: > 32 µg/mL; MIC, S. LIQUEFACIENS [29, 33]: > 32 µg/mL; MIC, S. MALTOPHILIA [30, 33]: > 32 µg/mL; MIC, S. MARCESCENS [31, 33]: > 32 µg/mL
Cn1nnc(-c2cc(-c3ccc(F)cc3)sc2-c2ccc(F)cc2)n1 [DNM-132, 5-(2,5-bis(4-fluorophenyl)thiophen-3-yl)-2-methyl-2H-tetrazole]	> 16 µg/mL	> 16 µg/mL	> 16 µg/mL	> 16 µg/mL	> 16 µg/mL	> 16 µg/mL	> 16 µg/mL	> 16 µg/mL	> 16 µg/mL	> 16 µg/mL	> 16 µg/mL	> 16 µg/mL	> 16 µg/mL	> 16 µg/mL	> 16 µg/mL	> 16 µg/mL	>16	> 16 µg/mL	> 16 µg/mL	> 16 µg/mL	MIC, E. COLI [21, 33]: > 16 µg/mL; MIC, K. OXYTOCA [22, 33]: > 16 µg/mL; MIC, K. PNEUMONIAE [23, 33]: > 16 µg/mL; MIC, M. MORGANII [24, 33]: > 16 µg/mL; MIC, P. MIRABILIS [25, 33]: > 16 µg/mL; MIC, P. RETTGERI [26, 33]: > 16 µg/mL; MIC, P. STUARTII [27, 33]: > 16 µg/mL; MIC, P. VULGARIS [28, 33]: > 16 µg/mL; MIC, S. LIQUEFACIENS [29, 33]: > 16 µg/mL; MIC, S. MALTOPHILIA [30, 33]: > 16 µg/mL; MIC, S. MARCESCENS [31, 33]: > 16 µg/mL
